According to US12312359B2 (Vitae Pharmaceuticals, LLC, priority 2016, dated 2025):

Legend:
[1] = molecular target: T1, biotinylated wild-type menin and MLL-AF9 fusion protein (menin/MLL binding) (Homo sapiens, UniProt O00255); assay: Assay 1: menin/MLL binding AlphaLISA assay, wild-type menin; settings: Table 30; column head does not say wild-type or mutated menin
T1 construct: made in house; host or cells: menin: E. coli; MLL-AF9-FLAG: HEK293 cells, used as cleared lysate
T1 sequence (O00255 1-610): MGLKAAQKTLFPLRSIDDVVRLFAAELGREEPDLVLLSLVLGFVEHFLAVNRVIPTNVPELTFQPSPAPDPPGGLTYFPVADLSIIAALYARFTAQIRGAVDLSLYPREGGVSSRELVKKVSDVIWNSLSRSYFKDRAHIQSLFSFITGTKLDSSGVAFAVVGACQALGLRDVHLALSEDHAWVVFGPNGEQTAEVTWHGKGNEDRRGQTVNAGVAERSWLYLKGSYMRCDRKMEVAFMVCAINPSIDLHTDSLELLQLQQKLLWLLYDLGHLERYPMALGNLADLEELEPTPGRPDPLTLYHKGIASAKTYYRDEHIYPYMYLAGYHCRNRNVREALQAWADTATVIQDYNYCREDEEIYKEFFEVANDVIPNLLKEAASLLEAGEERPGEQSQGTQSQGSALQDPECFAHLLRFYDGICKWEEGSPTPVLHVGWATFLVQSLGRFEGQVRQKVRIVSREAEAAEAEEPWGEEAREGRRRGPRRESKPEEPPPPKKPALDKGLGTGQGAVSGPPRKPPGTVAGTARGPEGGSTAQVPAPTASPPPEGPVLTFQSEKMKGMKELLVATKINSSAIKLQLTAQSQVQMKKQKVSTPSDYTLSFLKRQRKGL
Outline: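 Compound was preincubated 30 min at room temperature with biotinylated menin (5 nM) and MLL-AF9-FLAG lysate from HEK293 cells, pH 7.4 buffer with 5% DMSO and DTT. Bead-based Alpha signal after 60 min with streptavidin donor and anti-FLAG acceptor beads; four-parameter logistic fit gave IC50.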

[2] = system: human acute monocytic leukemia cell line MV-4-11; assay: Assay 2: cell proliferation assay (ATP quantitation, CellTiter-Glo), MV-4-11; assay type: cell-based; settings: MV-4-11 cells
Outline: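 MV-4-11 cells, 1.67×10^4 per well in medium with 10% FBS, were exposed to compound for 72 h at 37° C., 5% CO2; HL-60 cells served as toxicity control. Proliferation read as ATP content by CellTiter-Glo luminescence.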

SMILES	IC50 [1] [µM]	EC50 ([2]; Homo sapiens, MV4-11, 72 h) [µM]	EC50 ([2]; 72 h) [µM]
CC(C)N(C(=O)c1cc(F)ccc1Oc1cncnc1N1CC2(CCN(CC3CCOCC3)C2)C1)C(C)C [Example 111, 5-fluoro-N,N-diisopropyl-2-((4-(6-((tetrahydro-2H-pyran-4-yl)methyl)-2,6-diazaspiro[3.4]octan-2-yl)pyrimidin-5-yl)oxy)benzamide]	< 0.1	< 0.1	–
O=c1[nH]c2ccc(CN3CCC4(CCN(c5ncncc5Oc5ccc(F)cc5-c5cccnc5C5CC5)C4)C3)cc2[nH]1 (stereo not shown) [Example 180, 5-((7-(5-(2-(2-cyclopropylpyridin-3-yl)-4-fluorophenoxy)pyrimidin-4-yl)-2,7-diazaspiro[4.4]nonan-2-yl)methyl)-1,3-dihydro-2H-benzo[d]imidazol-2-one]	< 0.1	< 0.1	–
O=C(c1cc(F)ccc1Oc1cncnc1N1CCC2(CCN(Cc3ccc4[nH]c(=O)[nH]c4c3)C2)C1)N1C2CCC1CC2 (stereo not shown) [Example 212, 5-((7-(5-(2-((1s,4s)-7-azabicyclo[2.2.1]heptane-7-carbonyl)-4-fluorophenoxy)pyrimidin-4-yl)-2,7-diazaspiro [4.4]nonan-2-yl)methyl)-1,3-dihydro-2H-benzo[d]imidazol-2-one]	< 0.1	0.1 to 1	–
Cc1ncc(Oc2ccc(F)cc2-c2ccnn2C(C)C)c(N2CCC3(CCN(Cc4ccc5[nH]c(=O)[nH]c5c4)C3)C2)n1 (stereo not shown) [Example 126, 5-((7-(5-(4-fluoro-2-(1-isopropyl-1H-pyrazol-5-yl)phenoxy)-2-methylpyrimidin-4-yl)-2,7-diazaspiro[4.4]nonan-2-yl)methyl)-1,3-dihydro-2H-benzo[d]imidazol-2-one]	< 0.1	0.1 to 1	–
CCN(C(=O)c1cc(F)ccc1Oc1cncnc1N1CCC2(CCN(Cc3ccc4[nH]c(=O)[nH]c4c3)C2)C1)C(C)C (single isomer, unassigned) [Example 2A, N-ethyl-5-fluoro-N-isopropyl-2-((4-(7-((2-oxo-2,3-dihydro-1H-benzo[d]imidazol-5-yl)methyl)-2,7-diazaspiro[4.4]nonan-2-yl)pyrimidin-5-yl)oxy)benzamide]	< 0.1	–	< 0.1
N#Cc1ccc(-c2cc(F)ccc2Oc2cncnc2N2CC3(CN(CC4(O)CCOCC4)C3)C2)c(C2CC2)c1 [Example 214, 2-cyclopropyl-5′-fluoro-2′-((4-(6-((4-hydroxytetrahydro-2H-pyran-4-yl)methyl)-2,6-diazaspiro[3.3]heptan-2-yl)pyrimidin-5-yl)oxy)-[1,1′-biphenyl]-4-carbonitrile]	< 0.1	0.1 to 1	–
CC(C)c1ccccc1-c1cc(F)ccc1Nc1cncnc1N1CC2(CN(CC3(O)CCCCC3)C2)C1 [Example 242, 1-((6-(5-((5-fluoro-2′-isopropyl-[1,1′-biphenyl]-2-yl)amino)pyrimidin-4-yl)-2,6-diazaspiro [3.3]heptan-2-yl)methyl) cyclohexan-1-ol]	< 0.1	0.1 to 1	–
CC(C)N(C(=O)c1cc(F)ccc1Oc1cncnc1N1CCC2(CC(N)C(Cc3ccc4[nH]c(=O)[nH]c4c3)C2)C1)C(C)C (single isomer, unassigned) [Example 25, 2-((4-(7-amino-8-((2-oxo-2,3-dihydro-1H-benzo[d]imidazol-5-yl)methyl)-2-azaspiro[4.4]nonan-2-yl)pyrimidin-5-yl)oxy)-5-fluoro-N,N-diisopropylbenzamide]	< 0.1	–	≥ 1
CC(C)N(C)C(=O)c1cc(F)ccc1Oc1cncnc1N1CCC2(CCN(Cc3ccc(N4CCOC4=O)cc3)C2)C1 (stereo not shown) [Example 142, 5-fluoro-N-isopropyl-N-methyl-2-((4-(7-(4-(2-oxooxazolidin-3-yl)benzyl)-2,7-diazaspiro[4.4]nonan-2-yl)pyrimidin-5-yl)oxy)benzamide]	< 0.1	–	≥ 1
N#Cc1ccc(-c2cc(F)ccc2Oc2cncnc2N2CCC3(CCN(Cc4ccc5[nH]c(=O)[nH]c5c4)C3)C2)c(C2CC2)c1 (single isomer, unassigned) [Example 42A, 2-cyclopropyl-5′-fluoro-2′-((4-(7-((2-oxo-2,3-dihydro-1H-benzo[d]imidazol-5-yl)methyl)-2,7-diazaspiro[4.4]nonan-2-yl)pyrimidin-5-yl)oxy)-[1,1′-biphenyl]-4-carbonitrile]	< 0.1	< 0.1	–
O=C(c1cc(F)ccc1Oc1cncnc1N1CCC2(CCN(Cc3ccc4[nH]c(=O)[nH]c4c3)C2)C1)N1CCOCC1 (stereo not shown) [Example 155, 5-((7-(5-(4-fluoro-2-(morpholine-4-carbonyl)phenoxy)pyrimidin-4-yl)-2,7-diaza-spiro[4.4]nonan-2-yl)methyl)-1,3-dihydro-2H-benzo[d]imidazol-2-one]	< 0.1	0.1 to 1	–
CCN(C(=O)c1cc(F)ccc1Oc1cncnc1N1CCC2(CCN(Cc3ccc4[nH]c(=O)[nH]c4c3)C2)C1)C(C)C (racemic) [Example 2, N-ethyl-5-fluoro-N-isopropyl-2-((4-(7-((2-oxo-2,3-dihydro-1H-benzo[d]imidazol-5-yl)methyl)-2,7-diazaspiro[4.4]nonan-2-yl)pyrimidin-5-yl)oxy)benzamide]	< 0.1	< 0.1	–
CC(C)N(C(=O)c1cc(F)ccc1Oc1cncnc1N1CCC2(CC(Cc3ccc(F)cc3)N(CCO)C2)C1)C(C)C (single isomer, unassigned) [Example 26B, 5-fluoro-2-((4-(8-(4-fluorobenzyl)-7-(2-hydroxyethyl)-2,7-diazaspiro[4.4]nonan-2-yl)pyrimidin-5-yl)oxy)-N,N-diisopropylbenzamide]	< 0.1	–	≥ 1
CC(C)c1ncncc1-c1cc(F)ccc1Oc1cncnc1N1CCC2(CCN(Cc3ccc4c(c3)NC(=O)C4(C)C)C2)C1 (stereo not shown) [Example 178, 6-((7-(5-(4-fluoro-2-(4-isopropylpyrimidin-5-yl)phenoxy)pyrimidin-4-yl)-2,7-diazaspiro[4.4]nonan-2-yl)methyl)-3,3-dimethylindolin-2-one]	< 0.1	< 0.1	–
CC(=O)NC(c1cc(F)ccc1Oc1cncnc1N1CCC2(CCN(Cc3ccc4[nH]c(=O)[nH]c4c3)C2)C1)C1CCCC1 (stereo not shown) [Example 9, N-(cyclopentyl(5-fluoro-2-((4-(7-((2-oxo-2,3-dihydro-1H-benzo[d]imidazol-5-yl)methyl)-2,7-diazaspiro[4.4]nonan-2-yl)pyrimidin-5-yl)oxy)phenyl)methyl)acetamide]	< 0.1	≥ 1	–
CC(C)N(C)C(=O)c1cc(F)ccc1Oc1cncnc1N1CCC2(CCN(Cc3ccc4oc(=O)[nH]c4c3)C2)C1 (stereo not shown) [Example 174, 5-fluoro-N-isopropyl-N-methyl-2-((4-(7-((2-oxo-2,3-dihydrobenzo[d]oxazol-5-yl)methyl)-2,7-diazaspiro[4.4]nonan-2-yl)pyrimidin-5-yl)oxy)benzamide]	< 0.1	< 0.1	–
O=c1[nH]c2ccc(CN3CCC4(CCN(c5ncncc5Oc5ccc(F)cc5OCC5CC5)C4)C3)cc2[nH]1 (stereo not shown) [Example 54, 5-((7-(5-(2-(cyclopropylmethoxy)-4-fluorophenoxy)pyrimidin-4-yl)-2,7-diazaspiro[4.4]nonan-2-yl)methyl)-1,3-dihydro-2H-benzo[d]imidazol-2-one]	< 0.1	0.1 to 1	–
CC(C)n1nc(C(F)(F)F)cc1-c1cc(F)ccc1Oc1cncnc1N1CCC2(CCN(Cc3ccc4[nH]c(=O)[nH]c4c3)C2)C1 (stereo not shown) [Example 217, 5-((7-(5-(4-fluoro-2-(1-isopropyl-3-(trifluoromethyl)-1H-pyrazol-5-yl)phenoxy)pyrimidin-4-yl)-2,7-diazaspiro[4.4]nonan-2-yl)methyl)-1,3-dihydro-2H-benzo[d]imidazol-2-one]	< 0.1	< 0.1	–
CCN(C(=O)C(C)C)c1cc(F)ccc1Oc1cncnc1N1CC2(CN(C(=O)C3Cc4ccc(S(C)(=O)=O)cc4C3)C2)C1 (stereo not shown) [Example 117, N-ethyl-N-(5-fluoro-2-((4-(6-(5-(methylsulfonyl)-2,3-dihydro-1H-indene-2-carbonyl)-2,6diazaspiro[3.3]heptan-2-yl)pyrimidin-5-yl)oxy)phenyl)iso-butyramide]	< 0.1	0.1 to 1	–
CC(C)c1ccccc1-c1cc(F)ccc1Oc1cncnc1N1CCC2(CCN(C[C@H]3CC[C@H](NC(=O)OC(C)(C)C)CC3)C2)C1 (stereo partly shown) [Example 220, tert-butyl ((1r,4r)-4-((7-(5-((5-fluoro-2′-isopropyl-[1,1′-biphenyl]-2-yl)oxy)pyrimidin-4-yl)-2,7-diazaspiro[4.4]nonan-2-yl)methyl)cyclohexyl) carbamate]	< 0.1	0.1 to 1	–
